Measurements reported in patent publication US9447134B2 (priority 2012, dated 2016).

Legend:
[1] = target: S. pyogenes IMPDH (Streptococcus pyogenes, UniProt P0C0H6); assay: biochemical
[2] = target: T1, CpIMPDH (Cryptosporidium parvum, UniProt Q8T6T2); details: read-out: IC50 against CpIMPDH
T1 sequence (Q8T6T2 1-400): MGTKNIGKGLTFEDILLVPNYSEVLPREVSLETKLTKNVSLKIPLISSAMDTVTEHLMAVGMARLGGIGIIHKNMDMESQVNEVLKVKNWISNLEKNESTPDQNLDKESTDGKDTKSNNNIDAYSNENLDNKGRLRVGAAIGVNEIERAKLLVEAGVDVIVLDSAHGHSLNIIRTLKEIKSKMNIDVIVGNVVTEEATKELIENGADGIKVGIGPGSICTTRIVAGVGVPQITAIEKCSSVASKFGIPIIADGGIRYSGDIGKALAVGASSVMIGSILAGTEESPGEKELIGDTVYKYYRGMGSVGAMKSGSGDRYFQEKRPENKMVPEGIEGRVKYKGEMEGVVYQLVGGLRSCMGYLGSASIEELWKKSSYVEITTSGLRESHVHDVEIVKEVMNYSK

[3] = target: F. tularensis IMPDH (Francisella tularensis, UniProt Q5NFC2); assay: biochemical
[4] = tested on: Bu. mallei IMPDH; assay type: biochemical, Burkholderia mallei; details: FIG. 24
[5] = target: B. anthracis IMPDH (Bacillus anthracis, UniProt A0A6L8P2U9); assay: biochemical
[6] = Plasma pharmacokinetics in C57BL/6 mice; assay type: in vivo, mouse
Method: FIG. 32 tabulates the pharmacokinetic parameters for urea CpIMPDH inhibitors. C57BL/6 mice received a single dose of 250 mg/kg in 10% DMSO/corn oil by oral gavage.
Given the limited efficacy of current treatments, the pharmacokinetic and physicochemical properties required for in vivo efficacy have not been established. […] P82 is the primary product of P83 metabolism, so the concentration of P82 in plasma was also measured during P83 treatment.
PK was assessed at either the Stony Brook Translation Experimental Laboratory Therapeutics (Stony Brook, NY) or GVK Biosciences (Hyderabad, India).

[7] = Tissue distribution of P131 in mice; details: 24 h after a single 83 mg/kg oral dose
[8] = tested on: C. parvum; details: IL-12 knockout mice, 250 mg/kg daily oral gavage
[9] = tested on: Caco-2 cells; assay: Efflux from preloaded Caco-2 cells; assay type: in vitro ADME, human; details: preincubated with 100 μM
Method: FIG. 37 depicts the amount of P131 remaining in Caco-2 cells after the cells were loaded with different concentrations of P131 for 2 h at 37° C. in HBSS. The efflux tin is −1 h for loading at 100 μM and 2 h for 20 μM and 5 μM.
We preloaded Caco-2 cells with 5, 20 or 100 μM P131, then measured efflux (FIG. 37). The initial intracellular concentrations of P131 were dose dependent and scaled with the extracellular concentration for the 5 and 20 μM preincubation conditions. […] P131 efflux was very slow under all three conditions, with tin of 1-2 h.

[10] = tested on: Caco-2 cells; assay: Uptake in Caco-2 cells; assay type: in vitro ADME, human; details: extracellular concentration 10 μM
Method: FIG. 33 tabulates urea CpIMPDH inhibitor permeability and uptake in Caco-2 TC7 cells. All compounds at 10 μM, pH 7.4 on both sides. Solid recovery >80% in all cases. a. Approximate intracellular concentration, assuming 4 μL of water for 1 mg of cellular protein.
To further investigate the relationship between intestinal accumulation and antiparasitic activity, we measured the uptake of the CpIMPDH inhibitors in Caco-2 cells, a widely used model of human intestinal epithelial cells. Uptake varied over a range of 2000-fold among the eight CpIMPDH inhibitors (FIG. 33). […] All of the other compounds accumulated intracellular concentrations in excess of the extracellular concentration. […] The concentrations of all the other compounds were lower by at least a factor of 10, but nevertheless exceeded the concentrations required to inhibit CpIMPDH.

[11] = tested on: gut microbiota; details: 250 mg/kg daily, 7 days, compared with vehicle
[12] = target: A. baumannii IMPDH (Acinetobacter baumannii, UniProt D0CF46); assay: biochemical
A. baumannii IMPDH, sequence (D0CF46 entry or part of it): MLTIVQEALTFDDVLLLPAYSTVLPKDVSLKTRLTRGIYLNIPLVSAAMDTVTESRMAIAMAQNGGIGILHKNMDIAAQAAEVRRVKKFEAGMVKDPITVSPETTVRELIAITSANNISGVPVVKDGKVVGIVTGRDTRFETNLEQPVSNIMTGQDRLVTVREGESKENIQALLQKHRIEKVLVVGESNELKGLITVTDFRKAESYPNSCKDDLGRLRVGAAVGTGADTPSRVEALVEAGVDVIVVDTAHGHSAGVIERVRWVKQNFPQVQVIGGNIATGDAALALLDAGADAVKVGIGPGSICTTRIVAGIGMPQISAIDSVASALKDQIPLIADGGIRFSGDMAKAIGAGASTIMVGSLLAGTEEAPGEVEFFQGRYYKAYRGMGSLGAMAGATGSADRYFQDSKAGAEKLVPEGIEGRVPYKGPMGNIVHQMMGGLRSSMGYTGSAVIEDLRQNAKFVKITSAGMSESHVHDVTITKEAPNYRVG

B. anthracis IMPDH, sequence (A0A6L8P2U9 1-487): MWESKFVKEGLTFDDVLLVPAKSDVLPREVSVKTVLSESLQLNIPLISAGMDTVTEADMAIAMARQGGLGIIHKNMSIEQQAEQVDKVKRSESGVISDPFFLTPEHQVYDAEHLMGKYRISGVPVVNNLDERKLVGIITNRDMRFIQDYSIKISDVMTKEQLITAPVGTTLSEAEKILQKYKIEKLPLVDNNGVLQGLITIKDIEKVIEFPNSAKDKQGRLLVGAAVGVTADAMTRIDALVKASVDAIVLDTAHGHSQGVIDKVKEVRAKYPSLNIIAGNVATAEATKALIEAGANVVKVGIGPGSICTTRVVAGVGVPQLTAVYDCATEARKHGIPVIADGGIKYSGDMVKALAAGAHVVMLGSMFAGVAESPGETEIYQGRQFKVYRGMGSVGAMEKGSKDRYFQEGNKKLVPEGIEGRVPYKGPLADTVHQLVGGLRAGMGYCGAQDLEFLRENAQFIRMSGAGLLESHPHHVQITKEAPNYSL
S. pyogenes IMPDH, sequence (P0C0H6 whole entry): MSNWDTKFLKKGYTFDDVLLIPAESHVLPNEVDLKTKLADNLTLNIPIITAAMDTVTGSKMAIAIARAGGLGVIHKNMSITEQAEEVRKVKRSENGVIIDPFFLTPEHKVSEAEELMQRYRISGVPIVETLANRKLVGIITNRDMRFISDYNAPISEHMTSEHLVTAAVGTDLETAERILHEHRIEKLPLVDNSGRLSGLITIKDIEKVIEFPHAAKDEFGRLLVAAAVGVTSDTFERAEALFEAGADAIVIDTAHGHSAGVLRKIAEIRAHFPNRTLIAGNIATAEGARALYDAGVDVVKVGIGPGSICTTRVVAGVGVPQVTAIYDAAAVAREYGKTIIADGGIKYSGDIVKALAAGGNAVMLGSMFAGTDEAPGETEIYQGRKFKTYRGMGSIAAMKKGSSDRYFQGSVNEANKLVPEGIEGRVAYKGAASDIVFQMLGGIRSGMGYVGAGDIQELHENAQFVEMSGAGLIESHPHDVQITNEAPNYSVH
F. tularensis IMPDH, sequence (Q5NFC2 1-486): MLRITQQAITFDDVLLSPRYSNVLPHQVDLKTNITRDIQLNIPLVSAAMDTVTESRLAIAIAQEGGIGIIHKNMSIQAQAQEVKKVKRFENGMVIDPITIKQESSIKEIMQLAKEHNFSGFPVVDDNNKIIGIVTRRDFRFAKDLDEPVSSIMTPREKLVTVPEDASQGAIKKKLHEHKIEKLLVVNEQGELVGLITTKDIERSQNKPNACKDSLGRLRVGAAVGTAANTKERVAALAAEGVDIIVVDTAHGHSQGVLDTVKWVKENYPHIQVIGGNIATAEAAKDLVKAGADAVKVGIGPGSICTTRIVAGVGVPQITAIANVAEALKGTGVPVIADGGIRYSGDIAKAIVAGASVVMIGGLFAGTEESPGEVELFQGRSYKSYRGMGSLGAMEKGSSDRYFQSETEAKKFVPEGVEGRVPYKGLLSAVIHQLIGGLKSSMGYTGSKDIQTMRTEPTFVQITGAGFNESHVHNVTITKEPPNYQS

Cn1nc(CC(=O)Nc2ccc3oc4ccccc4c3c2)c2ccccc2c1=O [Compound D73, N-(dibenzo[b,d]furan-2-yl)-2-(3-methyl-4-oxo-3,4-dihydrophthalazin-1-yl)acetamide]
IC50 [1]: > 100 µM
IC50 [2]: 0.004 µM
IC50 [3]: 0.06 µM
IC50 [4]: 0.1 µM
IC50 [5]: 0.27 µM

CC(=NOCCN)c1cccc(C(C)(C)NC(=O)Nc2ccc(Cl)c([N+](=O)[O-])c2)c1 [Compound P131]
plasma half-life ([6]; 250 mg/kg single oral dose, C57BL/6 mice): 4 h
Cmax ([6]; 250 mg/kg single oral dose, C57BL/6 mice, read-out: maximal plasma concentration (Cmax)): 9 µM
plasma pharmacokinetic behavior / systemic distribution (in words) ([6]; mouse, in vivo): poor systemic distribution
intestine and feces concentration over IC50 for CpIMPDH inhibition [7]: more than 100 fold
in vivo antiparasitic activity, fecal oocysts (in words) [8]: anticryptosporidial activity
cytotoxicity to Caco-2 cells [9]: Some cytotoxicity
uptake/accumulation in Caco-2 cells (in words) [10]: millimolar concentrations
impact on fecal microbiota [11]: no additional impact
IC50 [5]: 0.21 µM
IC50 [12]: 0.71 µM
